Values quoted from earlier work as cited in patent US10603330B2, “Arginase inhibitors as therapeutics” (Mars, Incorporated, priority 2010, dated 2020).

Experiments:
blood pressure = conditions: spontaneously hypertensive animals
[1] = system: central airways responsiveness; conditions: murine chronic asthma model
[2] = system: bacterial arginase (H. pylori); conditions: inhibition of bacterial arginase
EAE = conditions: animals undergoing experimental autoimmune encephalomyelitis

## N=C(NO)NCC[C@H](N)C(=O)O [nor-NOHA, N^ω-hydroxy-nor-L-arginine]
Blood pressure
  blood pressure: lowered blood pressure

## N[C@@H](CSCCB(O)O)C(=O)O [S-(2-boronoethyl)-L-cysteine]
[1]
  methacholine induced responsiveness of the central airways: attenuated

## NC(=NCCC[C@H](N)C(=O)O)NO [NOHA]
[2]
  CD3 expression on T-cells: reestablished CD3 expression on T-cells

## NC(CCCCB(O)O)C(=O)O (stereo not shown) [ABH, amino-6-boronohexanoic acid]
EAE
  severity of EAE vs control animals: much milder form of EAE
